According to patent US20130190263A1 (LABORATORIO DE DIAGNOSTICO GAM, S.A., priority 2010, published 2013):
≈ marks a conversion by molar mass, not a printed value.

Legend:
ISA virus [1] = assay: Inhibition assay of the replicative cycle of ISAV in SHK-1 cells (real-time RT-PCR of supernatant); assay type: cell-based
[2] = Degradation when autoclaved at 121° C., 15 psi, 25% relative humidity; assay type: physicochemical
[3] = tested on: VHSV virus (Viral Hemorrhagic Septicemia Virus); conditions: EPC cells, cited from earlier work
ISA virus [4] = assay: Example 1: hematocrit of ISAV-infected treated fish; assay type: in vivo, Salmo salar; conditions: live fish
ISA virus [5] = assay: Example 1: necropsies analysis of infected treated fish; assay type: in vivo, Salmo salar; conditions: infected fish of tanks T1 and T2; FIGS. 14 and 15
Text: The necropsy of the fish in the assay of controlled environment was made through external and internal clinical analysis, with registration of morphometric parameters, description and registration of pathological features (necropsy itself), sampling of internal organs (heart, kidney, spleen and gills) in ethanol and RNA later, with counter samples (i.e. duplication of the samples of the organs same), along with the sample of muscle locket with skin to be used afterwards in analysis of deficiency (presence of the Antiviral in the muscle).
The fish were subjected to necropsy process mostly within 24 hours post sampling.
At the end of the assay all fish were euthanized and necropsied.

SHK-1 cells [6] = conditions: Atlantic salmon, 3 days
cell cultures = conditions: cited from earlier work
SHK-1 cells [7] = assay: Cytotoxicity: cell viability of SHK-1 cells (propidium iodide cytometry); conditions: relative to effective concentration
ISA virus [8] = assay: Example 1: determination of viral load in heart samples (real-time RT-PCR, TCID50); conditions: for viral load in infected fish (intraperitoneal): FIG. 9
RNA viruses = conditions: in general, in vitro; read-out: EC50 values (effective concentration 50%); cited from earlier work
[9] = 48 hours
IPNV = conditions: solution in the tank, exposure once during two hours; cited from earlier work
[10] = Example 1: toxicity in healthy uninfected fish given the highest dose (tank C2)

O=C(O)C1=C[C@@H](O)[C@@H](O)[C@H](O)C1 [shikimic acid]
viral replication inhibition (ISA virus [1]; up to concentrations of 300 μg/ml, FIG. 2): no viral replication inhibition

CCOC(=O)C1=C[C@@H](OC(CC)CC)[C@H](NC(C)=O)[C@@H](N)C1 [oseltamivir]
inhibition of the replication of ISA virus (ISA virus [1]; concentrations as high as 300 μg/mL, SHK-1 cells, 3 days post-infection, FIG. 1): no more than 60%

NC(=O)c1ncn([C@@H]2O[C@H](CO)[C@@H](O)[C@H]2O)n1 [ribavirin, 1-beta-D-ribofuranosyl-1H-1,2,4-triazole-3-carboxamide]
% Antiviral ([2]; 5 minutes in autoclave): 97.2% | % Antiviral ([2]; 10 minutes in autoclave): 91.9% | % Antiviral ([2]; 20 minutes drying + 30 minutes in autoclave): 99.5% | % Antiviral ([2]; 30 minutes in autoclave): 90.3% | RNA inhibition ([3]; 25 μg/ml added at 0 hours post infection, at 10 hours post infection): 99.8% | inhibition of the virus ([3]; concentrations of 5, 10 and 25 μg/ml): strong inhibition | hematocrit (ISA virus [4]; tank T1, infected, dose of 800 μg/mL): ~45% | hematocrit (ISA virus [4]; tank T2, infected, dose of 400 μg/mL): ~45% | necropsy findings (ISA virus [5]): mild inflammatory signs | concentration that produces 50% of cell toxicity (CC50) (SHK-1 cells [6]): > 400000 µg/mL | CC50 (cell cultures): 100 µg/mL (≈ 409 µM) | no cytotoxicity in concentrations times higher than the actual (SHK-1 cells [7]): up to 10^7 times | viral load in dead fish (ISA virus [8]; highest dose (T1) compared with T2 and C3, FIG. 8): significantly lower | viral load in infected fish (intraperitoneal) (ISA virus [8]; highest dose (T1)): lower | viral load in infected fish (intraperitoneal) (ISA virus [8]; lowest dose (T2) versus untreated (C3)): practically the same | average viral load (total) (ISA virus [8]; tanks T1 and T2 versus C3, FIG. 6): smaller than the uninfected fish | EC50 (RNA viruses): ≥ 1000 nM | stability of the aqueous solution [9]: ≤ 48 h | EC50 (ISA virus [1]; 72 h, read-out: concentration which inhibits 50% of ISA virus replication (EC50)): ~0.4 µg/mL (≈ 1.64 µM) | decreased rate of dead fish (IPNV): about 5% | signs of anemia ([10]; healthy fish receiving a high dose (C2)): no signs of developing anemia | hematocrit ([10]; tank C2, healthy, dose of 1600 μg/mL): 54%
